Experimental data taken from patent publication US20110039873A1, “SUBSTITUTED PYRAZOLO[1,5-a] PYRIDINE COMPOUNDS HAVING MULTI-TARGET ACTIVITY” (priority 2009, published 2011).
Like-named read-outs stand apart in the source and are kept apart here.

Tests used:
[1] = system: at least one of JNK 3 or JNK 2 and at least one of PDE 10 or PDE 4; experiment: Dual inhibition (phosphodiesterase and JNK); format: biochemical, human; settings: IC50 JNK 3 or JNK 2 less than about 5.00 μM and PDE 10 or PDE 4 less than about 20.0 or 30.0 μM
Experimental: (§1) In a 96-well plate, recombinant full length human JNK2 or JNK3 enzyme (40 ng) expressed in Sf21 cells (Upstate) was incubated with the substrate ATF2 (3 uM) for 1 hour in the presence of 10 uM ATP. The amount of ATP depletion by the JNK enzyme is measured in the presence or absence of test compounds (0-30 uM). The ATP levels were quantified using luciferase with luminescence read on a Victor Light 1420 luminometer. IC50 calculations were plotted using a nonlinear regression curve fit.
(§2) In a 96-well plate, the catalytic domain of phosphodiesterase 4B enzyme (40 mU/well) cloned from human brain (Scottish Biomedical) was combined with 5 uM cAMP substrate (Sigma). Test compounds (0-30 uM) or vehicle (0.5% DMSO) were added to the enzyme/substrate and incubated 1 hour. Using a PDELight® kit (Cambrex), the amount of AMP produced in the reaction from the hydrolysis of cAMP was quantified using PDELight AMP Detection Reagent which converts the AMP directly to ATP. The assay uses luciferase, which catalyses the formation of light from the newly formed ATP and luciferin. The luminescence was read on a Victor Light 1420 luminometer. IC50 calculations were plotted using a nonlinear regression curve fit.
as §2, with “plate, recombinant human” for “plate, the catalytic domain of”, “phosphodiesterase 10A1” for “phosphodiesterase 4B”, “enzyme (10 U/well) expressed in Baculovirus infected Sf9 cells (BPS Biosciences)” for “enzyme (40 mU/well) cloned from human brain (Scottish Biomedical)”, “with 1” for “with 5”

[2] = molecular target: T1, recombinant human phosphodiesterase 10A1 enzyme (Homo sapiens, UniProt Q9Y233); experiment: PDE10 inhibition assay (PDELight); format: biochemical; settings: for IC50: 1 uM cAMP, read-out: PDE 10 Inhibition (IC50 in μM); for PDE-10 inhibition (in words): Table 2
T1 construct: purchased BPS Biosciences; host or cells: Baculovirus infected Sf9 cells
T1 sequence (Q9Y233 1-779 isoform Q9Y233-1): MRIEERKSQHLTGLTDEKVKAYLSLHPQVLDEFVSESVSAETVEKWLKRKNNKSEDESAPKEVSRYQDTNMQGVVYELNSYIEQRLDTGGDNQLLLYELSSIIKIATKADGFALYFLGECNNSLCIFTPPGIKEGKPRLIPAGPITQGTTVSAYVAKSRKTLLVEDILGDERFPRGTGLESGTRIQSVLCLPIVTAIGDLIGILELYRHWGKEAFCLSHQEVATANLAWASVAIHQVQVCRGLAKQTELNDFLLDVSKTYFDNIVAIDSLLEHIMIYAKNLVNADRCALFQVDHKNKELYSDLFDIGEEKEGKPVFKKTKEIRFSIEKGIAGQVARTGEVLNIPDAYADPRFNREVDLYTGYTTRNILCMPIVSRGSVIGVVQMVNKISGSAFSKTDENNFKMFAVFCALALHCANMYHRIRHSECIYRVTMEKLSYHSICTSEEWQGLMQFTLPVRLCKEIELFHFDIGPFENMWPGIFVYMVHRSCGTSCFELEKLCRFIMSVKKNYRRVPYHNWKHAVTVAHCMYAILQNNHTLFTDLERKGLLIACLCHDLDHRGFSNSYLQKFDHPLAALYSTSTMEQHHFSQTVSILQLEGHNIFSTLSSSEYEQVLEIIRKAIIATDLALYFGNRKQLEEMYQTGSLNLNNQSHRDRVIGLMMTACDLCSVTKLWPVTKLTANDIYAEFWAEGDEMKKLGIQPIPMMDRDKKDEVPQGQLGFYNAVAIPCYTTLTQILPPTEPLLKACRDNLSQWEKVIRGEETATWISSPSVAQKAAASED
Experimental: In a 96-well plate, recombinant human phosphodiesterase 10A1 enzyme (10 U/well) expressed in Baculovirus infected Sf9 cells (BPS Biosciences) was combined with 1 uM cAMP substrate (Sigma). […] Using a PDELight® kit (Cambrex), the amount of AMP produced in the reaction from the hydrolysis of cAMP was quantified using PDELight AMP Detection Reagent which converts the AMP directly to ATP. The assay uses luciferase, which catalyses the formation of light from the newly formed ATP and luciferin. The luminescence was read on a Victor Light 1420 luminometer. IC50 calculations were plotted using a nonlinear regression curve fit.

[3] = system: phosphorylated c-Jun (serine-73); experiment: Phosphorylated c-JUN (A-beta), SH-SY5Y; format: cell-based; settings: Homo sapiens, Amyloid Beta peptide 30 uM, 3 hours, read-out: p-cJun Abeta SH-SY5Y (EC50 in μM)
Experimental: In 96-well plates either human SH-SY5Y neuroblastoma cells at 2.5×10^4 cells/well or E18 rat neuronal cells at 1.5×10^4 cells/well were seeded. […] Supernatant was discarded and cells were fixed with 4% paraformaldehyde (100 ul/well) for 20 minutes. FACE cell based ELISA assay (Active Motif) was performed specific for quantifying phosphorlyated c-Jun (serine-73).

[4] = molecular target: T2, recombinant full length human JNK3 enzyme (Homo sapiens, UniProt P53779); experiment: JNK 3 inhibition assay (ATP depletion, luciferase); format: biochemical; settings: for IC50: 10 uM ATP, ATF2 substrate; for JNK-3 inhibition (in words): see Table 2
T2 construct: recombinant full length human JNK2 or JNK3 enzyme; purchased Upstate; host or cells: Sf21 cells
T2 sequence (P53779 whole entry): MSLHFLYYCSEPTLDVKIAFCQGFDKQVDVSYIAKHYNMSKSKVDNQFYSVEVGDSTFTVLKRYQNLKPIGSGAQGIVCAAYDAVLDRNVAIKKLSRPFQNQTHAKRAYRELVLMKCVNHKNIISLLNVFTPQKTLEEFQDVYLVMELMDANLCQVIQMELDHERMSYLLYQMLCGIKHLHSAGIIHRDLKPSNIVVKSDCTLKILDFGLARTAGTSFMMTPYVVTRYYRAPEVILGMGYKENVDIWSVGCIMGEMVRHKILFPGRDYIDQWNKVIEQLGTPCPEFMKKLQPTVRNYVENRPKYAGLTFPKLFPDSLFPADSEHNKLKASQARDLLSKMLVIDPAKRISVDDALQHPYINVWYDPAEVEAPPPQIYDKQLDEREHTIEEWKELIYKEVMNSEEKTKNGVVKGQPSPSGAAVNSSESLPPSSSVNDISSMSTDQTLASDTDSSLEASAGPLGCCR
Experimental: as §1, with “The amount of ATP depletion by the JNK enzyme is measured in the presence or absence of test compounds (0-30 uM).” left out

[5] = molecular target: T3, catalytic domain of phosphodiesterase 4B enzyme cloned from human brain (Homo sapiens, UniProt Q07343); experiment: PDE4 inhibition assay (PDELight); format: biochemical; settings: for IC50: 5 uM cAMP, read-out: PDE 4 Inhibition (IC50 in μM)
T3 construct: the catalytic domain of phosphodiesterase 4B enzyme; purchased Scottish Biomedical
T3 sequence (Q07343 330-659 limits assumed): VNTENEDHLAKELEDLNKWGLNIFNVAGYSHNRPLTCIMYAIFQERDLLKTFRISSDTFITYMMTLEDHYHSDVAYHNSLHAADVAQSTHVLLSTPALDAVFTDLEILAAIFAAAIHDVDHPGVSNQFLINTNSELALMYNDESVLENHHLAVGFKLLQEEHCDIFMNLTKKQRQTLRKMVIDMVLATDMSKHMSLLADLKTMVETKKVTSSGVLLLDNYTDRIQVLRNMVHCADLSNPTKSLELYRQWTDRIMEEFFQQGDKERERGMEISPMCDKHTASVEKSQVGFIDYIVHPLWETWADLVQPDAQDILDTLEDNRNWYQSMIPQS
Experimental: as §2, with “Test compounds (0-30 uM) or vehicle (0.5% DMSO) were added to the enzyme/substrate and incubated 1 hour.” left out, “The luminescence was read on a Victor Light 1420 luminometer.” left out

[6] = system: rat chronic constriction injury (CCI) model of neuropathic pain; experiment: Rat chronic constriction injury (CCI) model of neuropathic pain; format: in vivo; settings: IP, dose not given; 50% paw withdrawal threshold, von Frey
Experimental: To induce allodynia, male Sprague-Dawley rats underwent chronic constriction injury (CCI) to the sciatic nerve as described by Bennett and Xie, Pain 1988; 33(1):87-107. The plantar surface of the hind paws was stimulated with von Frey filaments (Stoelting) to induce a withdrawal response by blinded personnel. The bending force of fiber required to induce a 50% withdrawal response was calculated following CCI surgery (pre-dosing baseline). N=5-6 allodynic rats received a single IP or oral administration of test compounds or vehicle. Two hours post-dosing, 50% paw withdrawal threshold was determined again by blinded testers using von Frey filaments. The 50% withdrawal threshold prior to CCI surgery, pre-dosing (10 days post-surgery), and 2 hours post-dosing are plotted.
For selected compounds multi-day studies were perfumed with pre-determined schedules for dosing and withdrawal threshold assessments.

[7] = system: phosphorylated c-Jun (serine-73); experiment: Phosphorylated c-JUN (6-OHDA), SH-SY5Y; format: cell-based; settings: Homo sapiens, 50 uM 6-hydroxydopamine, 1.5 hours, read-out: p-cJun 6-OHDA SH-SY5Y (EC50 in μM)
Experimental: Human SH-SY5Y neuroblastoma cells were cultured in 96-well plates with 2.5×10^4 cells/well and incubated for 48 hours. 6-hydroxydopamine was added at a concentration of 50 uM in the presence or absence of test compounds (0-30 uM) and incubated for 1.5 hours. Supernatant was discarded and cells were fixed with 4% paraformaldehyde (100 ul/well) for 20 minutes. FACE cell based ELISA assay (Active Motif) was performed specific for quantifying phosphorlyated c-Jun (serine-73).

[8] = system: Mouse BV-2 microglial cells; experiment: BV-2 glial cell assay (TNF-α and MCP-1 by Luminex); format: cell-based; settings: for EC50: Mus musculus, BV-2, LPS and IFN-γ activated, 20 hours; for inhibiting glial cell activation (TNF-α and/or MCP-1): Table 3
Experimental: Mouse BV-2 microglial cells were seeded on 96-well plates at a concentration of 3×10^4 cells/well. Cells were activated with 100 ng/mL LPS and IFN-γ (100 ng/mL) in the presence or absence of test compounds (0-30 uM). Following incubation for 20 hours, cells were spun down and supernatant collected. The supernatant was analyzed via Luminex for the presence of TNF-α and MCP-1.

[9] = molecular target: T4, recombinant full length human JNK2 enzyme (Homo sapiens, UniProt P45984); experiment: JNK 2 inhibition assay (ATP depletion, luciferase); format: biochemical
T4 construct: recombinant full length human JNK2 or JNK3 enzyme; purchased Upstate; host or cells: Sf21 cells
T4 sequence (P45984 whole entry): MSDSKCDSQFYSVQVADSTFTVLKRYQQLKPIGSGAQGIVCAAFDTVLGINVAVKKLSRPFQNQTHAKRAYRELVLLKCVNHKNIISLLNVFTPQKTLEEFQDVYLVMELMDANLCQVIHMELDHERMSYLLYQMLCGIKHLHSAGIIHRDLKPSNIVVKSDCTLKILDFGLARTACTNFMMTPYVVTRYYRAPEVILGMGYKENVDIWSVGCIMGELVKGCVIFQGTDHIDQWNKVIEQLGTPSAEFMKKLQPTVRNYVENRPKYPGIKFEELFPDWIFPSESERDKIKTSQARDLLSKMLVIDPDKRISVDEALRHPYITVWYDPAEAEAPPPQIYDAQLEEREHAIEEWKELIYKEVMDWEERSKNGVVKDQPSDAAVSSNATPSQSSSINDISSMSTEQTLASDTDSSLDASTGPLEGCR
Experimental: In a 96-well plate, recombinant full length human JNK2 or JNK3 enzyme (40 ng) expressed in Sf21 cells (Upstate) was incubated with the substrate ATF2 (3 uM) for 1 hour in the presence of 10 uM ATP. […] IC50 calculations were plotted using a nonlinear regression curve fit.

[10] = Oral pharmacokinetic evaluation; format: in vivo, rat; settings: Sprague-Dawley rats; for half-life / AUC(0-t) / Cmax: male, rat, plasma; for half-life: Sprague-Dawley, po, 15 mg/kg; for AUC(0-t): read-out: Oral PK AUClast; for Cmax: read-out: Oral PK Cmax
Experimental: Three male Sprague-Dawley rats were dosed orally via gavage with 15 mg/kg of test compound. Serial blood samples were collected from the jugular vein at 5, 15, and 30 min, 1, 3, and 6 hours post dosing. Samples were processed for plasma via centrifugation and plasma samples were stored frozen prior to analysis via a sensitive and specific HPLC/MS/MS method. PK parameters were calculated using WinNonLin (Pharsight).

[11] = read-out: MCP-1 BV-2 (EC50 in μM)
[12] = read-out: TNF-a BV-2 (EC50 in μM)
[13] = 10 uM ATP, ATF2 substrate, read-out: JNK 2 Inhibition (IC50 in μM)
[14] = 15 mg/kg oral gavage, read-out: Oral PK T½ (converted)
[15] = read-out: IC50 value based upon a JNK 2 inhibition assay (range given)

dual inhibition (phosphodiesterase and JNK) [1]	IC50 [2]	PDE-10 inhibition (in words) [2]	EC50 [3]	IC50 [4]	JNK-3 inhibition (in words) [4]	PDE-4 inhibition (in words) [5]	IC50 [5]	EC50 [7]	EC50 [8, 11]	EC50 [8, 12]	IC50 [9, 13]	half life following oral dosing (in words) ([10]; oral)	half-life [10, 14]	AUC(0-t) ([10]; 15 mg/kg oral gavage)	Cmax ([10]; 15 mg/kg oral gavage)	IC50 [9, 15]	half-life ([10]; oral, read-out: half life following oral dosing)	Structure (SMILES)	IP CCI efficacy (Change in grams) [6]	inhibiting glial cell activation (TNF-α and/or MCP-1) [8]
effective dual inhibitors	8.4 µM	particularly effective	> 30 µM	1.2 µM	particularly effective	particularly effective	3.4 µM	> 30 µM	1.2 µM	1 µM								CC(C)CNc1nccc(-c2c(C(C)C)nn3ccccc23)n1 [AV1158, N-isobutyl-4-(2-isopropylpyrazolo[1,5-a]pyridin-3-yl)pyrimidin-2-amine]	0.93 grams	Particularly effective
effective dual inhibitors	> 100 µM		> 30 µM	3.6 µM		particularly effective	5.4 µM				2.8 µM							CC(C)Cc1nn2ccccc2c1-c1ccnc(NC2CCCC2)n1 [AV1178, N-cyclopentyl-4-(2-isobutylpyrazolo[1,5-a]pyridin-3-yl)pyrimidin-2-amine]		
effective dual inhibitors	53.5 µM		4.1 µM	0.3 µM	particularly effective		16.4 µM	> 30 µM	1.6 µM	0.04 µM		particularly prolonged half lives	1.8 h	0.16 µg·h/mL	0.058 µg/mL			Fc1cccc(-c2nn3ccccc3c2-c2ccnc(NC3CCCC3)n2)c1 [AV1180, N-cyclopentyl-4-(2-(3-fluorophenyl)pyrazolo[1,5-a]pyridin-3-yl)pyrimidin-2-amine]	0 grams	Particularly effective
effective dual inhibitors	> 100 µM			0.05 µM	particularly effective	particularly effective	4.9 µM		0.7 µM	0.03 µM	0.09 µM	particularly prolonged half lives	1.2 h	0.581 µg·h/mL	0.211 µg/mL	0.01 to 2 µM		Brc1cccc(-c2nn3ccccc3c2-c2ccnc(NC3CCCC3)n2)c1 [AV1195, 4-(2-(3-bromophenyl)pyrazolo[1,5-a]pyridin-3-yl)-N-cyclopentylpyrimidin-2-amine]	[0] grams	Particularly effective
effective dual inhibitors	6.8 µM	particularly effective		2.8 µM	particularly effective	particularly effective	3.4 µM		0.3 µM	3.3 µM	1.4 µM	particularly prolonged half lives	3.6 h	0.079 µg·h/mL	0.03 µg/mL	0.01 to 2 µM	> 3 h	c1ccn2nc(C3CC3)c(-c3ccnc(NC4CCCC4)n3)c2c1 [AV1198, N-cyclopentyl-4-(2-cyclopropylpyrazolo[1,5-a]pyridin-3-yl)pyrimidin-2-amine]	[0] grams	Particularly effective
